Results as given in PubChem BioAssay AID330 (DTP/NCI, 2004).
Values joined by “and” are separate entries in the source; they are usually repeats but may differ in a detail not shown here. Identical values can stand only once. Inconclusive results and toxic doses are left out. Rule for the calls: active = survival T/C of 150% or more; inactive = T/C below 125% in these data.

Tested on: P388 leukemia ip, CD2F1 mice, survival T/C
Assay: NCI In Vivo Anticancer Drug Screen. Data for tumor model P388 Leukemia (intraperitoneal) in CD2F1 (CDF1) mice
Settings: endpoint: median survival time, higher = longer survival
Procedure, shortened: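 Mice carrying the transplanted tumor received test compound or vehicle. Survival was recorded in each group, and the value is the treated-group measurement divided by that of the vehicle-treated control group.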

[1] = dose: 60.0 mg/kg/injection, schedule: Q01DX005 (ip), vehicle: saline with Tween-80
[2] = dose: 120.0 mg/kg/injection, schedule: Q01DX005 (ip), vehicle: saline with Tween-80
[3] = dose: 240.0 mg/kg/injection, schedule: Q01DX005 (ip), vehicle: saline with Tween-80
[4] = dose: 50.0 mg/kg/injection, schedule: Q01DX005 (ip), vehicle: Klucel (hydroxypropylcellulose) (HPC)

Measured: T/C

COc1ccc2c(O)c(S(=O)(=O)c3ccc(Cl)cc3)c(=O)oc2c1
inactive: [1] 102 % of control | [2] 112 % of control | [3] 102 % of control

NNc1ccc2nnc(Cl)n2n1
inactive: dose: 100.0 mg/kg/injection, schedule: Q04DX002 (ip), vehicle: saline 101 % of control | dose: 200.0 mg/kg/injection, schedule: Q04DX002 (ip), vehicle: saline 102 % of control | dose: 400.0 mg/kg/injection, schedule: Q04DX002 (ip), vehicle: saline 108 % of control

C/C(=N/N)c1ccc(Br)cc1
inactive: dose: 6.25 mg/kg/injection, schedule: Q01DX009 (ip), vehicle: saline with Tween-80 100 % of control | dose: 12.5 mg/kg/injection, schedule: Q01DX009 (ip), vehicle: saline with Tween-80 104 % of control

CC1=NN(C(=O)c2ccccc2)C(C)(C)C1
inactive: [4] 113 % of control | dose: 100.0 mg/kg/injection, schedule: Q01DX005 (ip), vehicle: Klucel (hydroxypropylcellulose) (HPC) 111 % of control | dose: 200.0 mg/kg/injection, schedule: Q01DX005 (ip), vehicle: Klucel (hydroxypropylcellulose) (HPC) 97 % of control

CC(NNC(=S)N1CCCCCC1)c1ccccn1 (stereo not given)
inactive: dose: 12.5 mg/kg/injection, schedule: Q01DX005 (ip), vehicle: Klucel (hydroxypropylcellulose) (HPC) 103 % of control | dose: 25.0 mg/kg/injection, schedule: Q01DX005 (ip), vehicle: Klucel (hydroxypropylcellulose) (HPC) 106 % of control | [4] 112 % of control and 113 % of control

BrC1=CC(Br)=C2N=C(C(Br)(Br)Br)N=C3N=C(C(Br)(Br)Br)N=C1N32
inactive: dose: 15.0 mg/kg/injection, schedule: Q01DX005 (ip), vehicle: Klucel + Tween-80 106 % of control | dose: 30.0 mg/kg/injection, schedule: Q01DX005 (ip), vehicle: Klucel + Tween-80 109 % of control | dose: 60.0 mg/kg/injection, schedule: Q01DX005 (ip), vehicle: Klucel + Tween-80 103 % of control and 110 % of control

NC(=O)NC1(C(=O)O)CCCC1
inactive: dose: 25.0 mg/kg/injection, schedule: Q01DX009 (ip), vehicle: Klucel (hydroxypropylcellulose) (HPC) 102 % of control | dose: 50.0 mg/kg/injection, schedule: Q01DX009 (ip), vehicle: Klucel (hydroxypropylcellulose) (HPC) 103 % of control | dose: 100.0 mg/kg/injection, schedule: Q01DX009 (ip), vehicle: Klucel (hydroxypropylcellulose) (HPC) 103 % of control | dose: 200.0 mg/kg/injection, schedule: Q01DX009 (ip), vehicle: Klucel (hydroxypropylcellulose) (HPC) 105 % of control

O=[N+]([O-])c1cnc(Sc2ncccn2)c([N+](=O)[O-])c1
inactive: dose: 3.12 mg/kg/injection, schedule: Q01DX009 (ip), vehicle: saline 96 % of control | dose: 3.12 mg/kg/injection, schedule: Q01DX009 (ip), vehicle: suspension in saline 107 % of control | dose: 6.25 mg/kg/injection, schedule: Q01DX009 (ip), vehicle: saline 96 % of control | dose: 6.25 mg/kg/injection, schedule: Q01DX009 (ip), vehicle: suspension in saline 104 % of control | dose: 12.5 mg/kg/injection, schedule: Q01DX009 (ip), vehicle: saline 99 % of control | dose: 12.5 mg/kg/injection, schedule: Q01DX009 (ip), vehicle: suspension in saline 98 % of control and 108 % of control | dose: 25.0 mg/kg/injection, schedule: Q01DX009 (ip), vehicle: suspension in saline 105 % of control | dose: 50.0 mg/kg/injection, schedule: Q01DX009 (ip), vehicle: suspension in saline 99 % of control and 107 % of control

COC(=O)CCC(C(C)=O)C(=O)OC (stereo not given)
inactive: dose: 60.0 mg/kg/injection, schedule: Q01DX005 (ip), vehicle: saline 105 % of control | dose: 120.0 mg/kg/injection, schedule: Q01DX005 (ip), vehicle: saline 110 % of control | dose: 240.0 mg/kg/injection, schedule: Q01DX005 (ip), vehicle: saline 107 % of control

C=C1C(=O)CCC1C#N (stereo not given)
inactive: dose: 50.0 mg/kg/injection, schedule: Q04DX002 (ip), vehicle: suspension in saline 100 % of control | dose: 100.0 mg/kg/injection, schedule: Q04DX002 (ip), vehicle: suspension in saline 100 % of control | dose: 200.0 mg/kg/injection, schedule: Q04DX002 (ip), vehicle: suspension in saline 93 % of control

COc1ccc(NC2=C(Cl)C(=O)C(Nc3ccc(OC)cc3)=C(Cl)C2=O)cc1
inactive: dose: 50.0 mg/kg/injection, schedule: Q01DX005 (ip), vehicle: saline with Tween-80 95 % of control | dose: 100.0 mg/kg/injection, schedule: Q01DX005 (ip), vehicle: saline with Tween-80 97 % of control | dose: 200.0 mg/kg/injection, schedule: Q01DX005 (ip), vehicle: saline with Tween-80 98 % of control

CC(C)(C#N)Nc1ccccc1
inactive: dose: 3.13 mg/kg/injection, schedule: Q04DX003 (ip), vehicle: saline with Tween-80 87 % of control | dose: 6.25 mg/kg/injection, schedule: Q04DX003 (ip), vehicle: saline with Tween-80 100 % of control and 95 % of control | dose: 12.5 mg/kg/injection, schedule: Q04DX003 (ip), vehicle: saline with Tween-80 100 % of control | dose: 25.0 mg/kg/injection, schedule: Q04DX003 (ip), vehicle: saline with Tween-80 100 % of control

C1CSCCSCCCSCCSC1
inactive: dose: 25.0 mg/kg/injection, schedule: Q01DX009 (ip), vehicle: saline with Tween-80 91 % of control | dose: 50.0 mg/kg/injection, schedule: Q01DX009 (ip), vehicle: saline with Tween-80 106 % of control and 90 % of control | dose: 100.0 mg/kg/injection, schedule: Q01DX009 (ip), vehicle: saline with Tween-80 91 % of control and 92 % of control | dose: 200.0 mg/kg/injection, schedule: Q01DX009 (ip), vehicle: saline with Tween-80 96 % of control | dose: 400.0 mg/kg/injection, schedule: Q01DX009 (ip), vehicle: saline with Tween-80 91 % of control

CSc1nc(NC2OCC(OC(C)=O)C(OC(C)=O)C2OC(C)=O)c(N=C(C)C(C)=O)c(=O)[nH]1 (stereo not given)
inactive: [1] 95 % of control | [2] 108 % of control | [3] 95 % of control
